According to paper PMC8556085, “Antimicrobial and Antioxidant Secondary Metabolites from Trifolium baccarinii Chiov. (Fabaceae) and Their Mechanisms of Antibacterial Action” (BioMed Research International, 2021):

Columns and labels:
Assay type in all cases: cell-based
Staphylococcus aureus = assay: Loss of salt tolerance; settings: pretreatment 1/2xMIC, MIC, 2xMIC for 1 h; MHA-NaCl 50, 60, 70 g/L
Method: (2) Loss of Salt Tolerance in Staphylococcus aureus. The ability of Staphylococcus aureus ATCC25923 and MRSA03 cells treated with the methanol extract and compound 5 to grow on Mueller-Hinton agar (MHA) supplemented with NaCl was investigated. In preliminary experiments, untreated suspensions of Staphylococcus aureus were plated on MHA supplemented with NaCl from 40 to 100 g/L. Plates were incubated. After incubation, the resulting colonies were counted. Concentrations of NaCl, 50, 60, and 70 g/L, which modestly compromised the colony-forming abilities of untreated microorganisms, were selected. For further experimentation steps, suspensions of bacteria were prepared as previously described and treated with the MeOH extract or compound 5 at 1/2xMIC, MIC, and 2xMIC. After 1 h incubation, samples were removed, serially diluted, and inoculated onto MHA and MHA-NaCl (50, 60, and 70 g/L). Bacterial culture without a sample was used as a control for each MHA-NaCl plate. Upon incubation, the numbers of CFU per milliliter on each MHA-NaCl plate were compared to those on the MHA plate, and the result was expressed as a percentage.

catalase = assay: Catalase activity in treated bacterial cell lysates; settings: Staphylococcus aureus ATCC25923 and MRSA03, MIC and 1/2xMIC, 24 h
Method: (3) Antioxidant Enzyme Activities. For evaluation of catalase and superoxide dismutase (SOD) activities, Staphylococcus aureus ATCC25923 and MRSA03 (1.5 × 10^8 CFU/mL, 500 μL) cultures from the late exponential growth phase were treated with MIC and 1/2xMIC of the methanol extract (500 μL), compound 5 (500 μL), and oxacillin (500 μL) solutions and incubated at 37°C for 24 h. The suspension was centrifuged at 3000 rpm for 5 min to separate the supernatant. The pellet was washed twice with PBS and resuspended in 500 μL of cell lysate buffer (1 mM EDTA, 10 Mm Tris-HCl, 0.1% Triton-X-100, and 150 mM NaCl) and incubated at 37°C for 1 h. Contents were then centrifuged at 3000 rpm for 5 min, and the supernatant was collected for enzyme activity assays.
Catalase activity. This was assessed by using a kit (Sigma, catalogue no. CAT100) with a cell lysate. Briefly, 750 μL of assay buffer (50 mM) was mixed with 25 μL of 50 mM H2O2 and 10 μL of cell lysate. […] The absorbance was monitored at 520 nm, and the catalase activity was calculated based on the following equation: [Δμ moles (H2O2) × d × 100)/V × t], where Δμ moles (H2O2) is the difference in amount of H2O2 added to the reaction mixture between blank and given samples, d is the dilution of the original sample for catalase reaction, V is the sample volume in catalase reaction, and t is the reaction duration (min).

[1] = test system: Staphylococcus aureus ATCC25923; assay: Bacteriolytic assay (time-kill kinetic method, OD600); settings: Staphylococcus aureus ATCC25923 suspension, 2xMIC, after 240 min, compared to the 0 time value
Method: (§1) (1) Bacteriolytic Assay. […] Full growth of bacterium in MHB was diluted 100 times and incubated at 37°C to produce an OD600 of 0.8 as a starting inoculum. Sample solutions were added to the starting bacterial suspension to give a final concentration of 2xMIC and incubated at 37°C under agitation at 150 rpm. After the incubation period corresponding to 0, 15, 30, 60, 120, and 240 min, 100 μL was pipetted from each tube and the optical density was recorded at 600 nm using the Biobase UV-Vis spectrophotometer. Corresponding dilutions of test samples were used as blanks. Oxacillin was used as a positive control, and the tubes without an extract/compound served as negative controls. All the measurements were done in triplicate and repeated three times.

[2] = test system: Pseudomonas aeruginosa ATCC27853; assay: as above; settings: Pseudomonas aeruginosa suspension, 2xMIC, after 240 min, compared to the 0 time value
Method: as §1

[3] = test system: Staphylococcus aureus ATCC25923; assay: Broth microdilution MIC/MMC
Procedure, shortened: (§2)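 Twofold broth microdilution in MHB (bacteria) or SDB (yeasts), final range 2048–0.125 μg/mL. Inocula were 1 × 10^6 CFU/mL for bacteria, incubated at 37 °C for 24 h with shaking, and 1 × 10^5 spores/mL for yeasts (C. albicans 30 °C 48 h; C. neoformans 30 °C 72 h). MIC was the lowest concentration with no visible growth, in triplicate.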

[4] = test system: methicillin-resistant Staphylococcus aureus 04 (MRSA04); assay: Broth microdilution MIC/MMC
Procedure, shortened: as §2

Escherichia coli S2(1) = assay: Broth microdilution MIC/MMC
Procedure, shortened: as §2

[5] = test system: Pseudomonas aeruginosa ATCC27853; assay: Broth microdilution MIC/MMC
Procedure, shortened: as §2

[6] = Staphylococcus aureus ATCC25923
[7] = Pseudomonas aeruginosa ATCC27853

## 4,7,2′-trihydroxy-4′-methoxyisoflavanol [compound 5]
Staphylococcus aureus
  number of colony-forming units on NaCl-supplemented media after pretreatment: significant decrease
catalase
  catalase activity vs untreated cell lysates: significant concentration-dependent decreases
[1]
  decline in cell turbidity: 99.87%
[2]
  decline in cell turbidity: 99.85%
[3]; [6]
  MMC: 8 µg/mL
  MMC/MIC: 1
[3]; Staphylococcus aureus ATCC25923, 24 h, 37°C
  MIC: 8 µg/mL
[4]; MRSA04
  MMC: 16 µg/mL
  MMC/MIC: 1
[4]; MRSA04, 24 h, 37°C
  MIC: 16 µg/mL
Escherichia coli S2(1)
  MMC: 16 µg/mL
  MMC/MIC: 2
Escherichia coli S2(1); 24 h, 37°C
  MIC: 8 µg/mL
[5]; [7]
  MMC: 8 µg/mL
  MMC/MIC: 1
[5]; Pseudomonas aeruginosa ATCC27853, 24 h, 37°C
  MIC: 8 µg/mL
